pIC50: −log10 of the molar value.
Columns and labels:
Human SGLT1 (hSGLT1) = Human SGLT1 (hSGLT1) (Homo sapiens (Human), UniProt P13866); test: Inhibitory effects on human SGLT1 activities (14C-AMG uptake, sodium-dependent glucose transport assay); assay type: cell-based; conditions: 37° C. for 2 h, single determinations
Experimental: Test 3: Inhibitory Effects on Human SGLT1 Activities
(§1) For sodium-dependent glucose transport assay, cells expressing […] were seeded into a 96-well culture plate at a density of 5×10^4 cells/well in RPMI medium 1640 containing 10% fetal bovine serum. The cells were used 1 day after plating. They were incubated in pretreatment buffer (10 mM HEPES, 5 mM Tris, 140 mM choline chloride, 2 mM KCl, 1 mM CaCl2, and 1 mM MgCl2, pH 7.4) at 37° C. for 10 min. They were then incubated in uptake buffer (10 mM HEPES, 5 mM Tris, 140 mM NaCl, 2 mM KCl, 1 mM CaCl2, 1 mM MgCl2, and 1 mM ^14C-nonlabeled AMG pH 7.4) containing ^14C-labeled (8 μM) and inhibitor or dimethyl sulfoxide (DMSO) vehicle at 37° C. for 2 h. Cells were washed twice with washing buffer (pretreatment buffer containing 10 mM AMG at room temperature) and then the radioactivity was measured using a liquid scintillation counter. IC50 was determined by nonlinear regression analysis using GraphPad PRISM.

Human SGLT2 (hSGLT2) = Human SGLT2 (hSGLT2) (Homo sapiens (Human), UniProt P31639); test: Inhibitory effects on human SGLT2 activities (14C-AMG uptake, sodium-dependent glucose transport assay); assay type: cell-based; conditions: hSGLT2-expressing CHO cells, 37° C. for 2 h, single determinations
Description: Test 1: Cloning and Cell Line Construction for Human SGLT2
Human SGLT2 (hSGLT2) gene was amplified by PCR from cDNA-Human Adult Normal Tissue Kidney (Invitrogen). The hSGLT2 sequence was cloned into pcDNA3.1(+) for mammalian expression and stably transfected into chinese hamster ovary (CHO) cells. SGLT2-expressing clones were selected based on resistance to G418 antibiotic (Geneticin) and activity in the ^14C-α-methyl-D-glucopyranoside (^14C-AMG) uptake assay.
Test 2: Inhibitory Effects on Human SGLT2 Activities
as §1, with “^14C-labeled AMG” for “^14C-labeled”, “the inventive compound” for “inhibitor”, “PRISM [Katsuno, K. et al. J. Pharmacol. Exp. Ther. 2007, 320, 323-330; Han, S. et al. Diabetes, 2008, 57, 1723-1729].” for “PRISM.”

Sequence of Human SGLT1 (hSGLT1) (P13866 whole entry): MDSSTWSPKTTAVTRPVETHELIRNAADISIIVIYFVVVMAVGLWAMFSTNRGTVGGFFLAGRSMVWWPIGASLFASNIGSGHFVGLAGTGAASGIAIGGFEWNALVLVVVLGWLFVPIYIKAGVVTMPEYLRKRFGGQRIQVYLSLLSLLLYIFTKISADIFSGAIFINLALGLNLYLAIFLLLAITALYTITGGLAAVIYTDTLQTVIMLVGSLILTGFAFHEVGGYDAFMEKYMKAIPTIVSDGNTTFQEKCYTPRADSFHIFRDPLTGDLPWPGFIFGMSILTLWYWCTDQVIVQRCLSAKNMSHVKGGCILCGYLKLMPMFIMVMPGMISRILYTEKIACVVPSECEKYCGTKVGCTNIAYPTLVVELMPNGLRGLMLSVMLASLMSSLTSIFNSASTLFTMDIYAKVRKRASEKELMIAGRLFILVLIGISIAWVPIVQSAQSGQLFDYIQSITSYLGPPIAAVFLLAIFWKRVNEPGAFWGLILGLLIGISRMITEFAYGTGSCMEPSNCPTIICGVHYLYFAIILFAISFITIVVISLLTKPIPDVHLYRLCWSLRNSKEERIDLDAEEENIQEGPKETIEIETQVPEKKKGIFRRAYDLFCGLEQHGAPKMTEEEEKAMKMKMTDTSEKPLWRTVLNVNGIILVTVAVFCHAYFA
Sequence of Human SGLT2 (hSGLT2) (P31639 whole entry): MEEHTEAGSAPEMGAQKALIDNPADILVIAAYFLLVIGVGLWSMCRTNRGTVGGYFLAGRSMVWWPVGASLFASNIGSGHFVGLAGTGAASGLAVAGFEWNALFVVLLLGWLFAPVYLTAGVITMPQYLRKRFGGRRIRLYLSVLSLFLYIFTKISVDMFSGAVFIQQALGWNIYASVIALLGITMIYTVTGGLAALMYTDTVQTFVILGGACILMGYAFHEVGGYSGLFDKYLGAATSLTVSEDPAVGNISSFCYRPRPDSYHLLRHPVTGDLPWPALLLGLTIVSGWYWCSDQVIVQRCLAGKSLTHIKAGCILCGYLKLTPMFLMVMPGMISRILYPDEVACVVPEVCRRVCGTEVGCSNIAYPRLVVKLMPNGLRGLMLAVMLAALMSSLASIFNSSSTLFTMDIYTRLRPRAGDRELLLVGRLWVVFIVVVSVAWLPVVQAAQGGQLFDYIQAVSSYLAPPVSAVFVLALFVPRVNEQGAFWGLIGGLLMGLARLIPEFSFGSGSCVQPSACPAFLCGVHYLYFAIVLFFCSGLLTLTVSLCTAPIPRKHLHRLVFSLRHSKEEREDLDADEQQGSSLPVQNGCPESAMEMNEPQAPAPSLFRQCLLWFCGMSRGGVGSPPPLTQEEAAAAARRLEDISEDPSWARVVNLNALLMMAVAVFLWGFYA

Row | Compound | pIC50 (Human SGLT1 (hSGLT1)) | pIC50 (Human SGLT2 (hSGLT2))
1 | CCc1ccc(Cc2cc([C@@H]3O[C@H](CO)[C@@H](O)[C@H](O)[C@H]3O)c3c(c2Cl)CCCO3)cc1 [Compound E011, (2S,3R,4R,5S,6R)-2-(5-Chloro-6-(4-ethylbenzyl)chroman-8-yl)-6-(hydroxymethyl)tetrahydro-2H-pyran-3,4,5-triol] | 7.57 | 9.07
2 | CCc1ccc(Cc2cc([C@@H]3O[C@H](CO)[C@@H](O)[C@H](O)[C@H]3O)c3c(c2Cl)OCCO3)cc1 [Compound E016, (2S,3R,4R,5S,6R)-2-(8-Chloro-7-(4-ethylbenzyl)-2,3-dihydrobenzo[b][1,4]dioxin-5-yl)-6-(hydroxymethyl)tetrahydro-2H-pyran-3,4,5-triol] | 7.08 | 9.04
3 | OC[C@H]1O[C@@H](c2cc(Cc3ccc(C4CC4)cc3)c(Cl)c3c2OCCC3)[C@H](O)[C@@H](O)[C@@H]1O [Compound E018, (2S,3R,4R,5S,6R)-2-(5-Chloro-6-(4-cyclopropylbenzyl)chroman-8-yl)-6-(hydroxymethyl)tetrahydro-2H-pyran-3,4,5-triol] | 7.58 | 9.07
4 | CCc1ccc(Cc2cc([C@@H]3O[C@H](CO)[C@@H](O)[C@H](O)[C@H]3O)c3c(c2Cl)CC(C)S3)cc1 (stereo partly drawn) [Compound E019, (2S,3R,4R,5S,6R)-2-(4-Chloro-5-(4-ethylbenzyl)-2-methyl-2,3-dihydrobenzo[b]thiophen-7-yl)-6-(hydroxymethyl)tetrahydro-2H-pyran-3,4,5-triol] | 6.95 | 9.01
5 | CCOc1ccc(Cc2cc([C@@H]3O[C@H](SC)[C@@H](O)[C@H](O)[C@H]3O)c3c(c2Cl)CC(C)O3)cc1 (stereo partly drawn) [Compound E020, (2S,3R,4R,5S,6R)-2-(4-Chloro-5-(4-ethoxybenzyl)-2-methyl-2,3-dihydrobenzofuran-7-yl)-6-(methylthio)tetrahydro-2H-pyran-3,4,5-triol] | 6.94 | 9.16
6 | CCOc1ccc(Cc2cc([C@@H]3O[C@H](SC)[C@@H](O)[C@H](O)[C@H]3O)c3c(c2Cl)OCCO3)cc1 [Compound E021, (2S,3R,4R,5S,6R)-2-(8-Chloro-7-(4-ethoxybenzyl)-2,3-dihydrobenzo[b][1,4]dioxin-5-yl)-6-(methylthio)tetrahydro-2H-pyran-3,4,5-triol] | 6.78 | 9.15
7 | OC[C@H]1O[C@@H](c2cc(Cc3ccc(C4CC4)cc3)c(Cl)c3c2OCO3)[C@H](O)[C@@H](O)[C@@H]1O [Compound E024, (2S,3R,4R,5S,6R)-2-(7-Chloro-6-(4-cyclopropylbenzyl)benzo[d][1,3]dioxol-4-yl)-6-(hydroxymethyl)tetrahydro-2H-pyran-3,4,5-triol] | 7.28 | 9.43
8 | COc1ccc(Cc2cc([C@@H]3O[C@H](CO)[C@@H](O)[C@H](O)[C@H]3O)c3c(c2Cl)OCO3)cc1 [Compound E025, (2S,3R,4R,5S,6R)-2-(7-Chloro-6-(4-methoxybenzyl)benzo[d][1,3]dioxol-4-yl)-6-(hydroxymethyl)tetrahydro-2H-pyran-3,4,5-triol] | 7.05 | 8.92
9 | CCc1ccc(Cc2cc([C@@H]3O[C@H](CO)[C@@H](O)[C@H](O)[C@H]3O)c3c(c2Cl)OCO3)cc1 [Compound E026, (2S,3R,4R,5S,6R)-2-(7-Chloro-6-(4-ethylbenzyl)benzo[d][1,3]dioxol-4-yl)-6-(hydroxymethyl)tetrahydro-2H-pyran-3,4,5-triol] | 7.06 | 9.40
10 | OC[C@H]1O[C@@H](c2cc(Cc3ccc(C4CC4)cc3)c(Cl)c3c2OCCO3)[C@H](O)[C@@H](O)[C@@H]1O [Compound E027, (2S,3R,4R,5S,6R)-2-(8-Chloro-7-(4-cyclopropylbenzyl)-2,3-dihydrobenzo[b][1,4]dioxin-5-yl)-6-(hydroxymethyl)tetrahydro-2H-pyran-3,4,5-triol] | 7.38 | 9.19
11 | COc1ccc(Cc2cc([C@@H]3O[C@H](SC)[C@@H](O)[C@H](O)[C@H]3O)c3c(c2Cl)CCCO3)cc1 [Compound E029, (2S,3R,4R,5S,6R)-2-(5-Chloro-6-(4-methoxybenzyl)chroman-8-yl)-6-(methylthio)tetrahydro-2H-pyran-3,4,5-triol] | 7.68 | 9.33
12 | COc1ccc(Cc2cc([C@@H]3O[C@H](CO)[C@@H](O)[C@H](O)[C@H]3O)c3c(c2Cl)CCS3)cc1 [Compound E030, (2S,3R,4R,5S,6R)-2-(4-Chloro-5-(4-methoxybenzyl)-2,3-dihydrobenzo[b]thiophen-7-yl)-6-(hydroxymethyl)tetrahydro-2H-pyran-3,4,5-triol] | 6.77 | 8.64

Results, then the molecule that gave them:

Row | pIC50 (Human SGLT1 (hSGLT1)) | pIC50 (Human SGLT2 (hSGLT2)) | Compound
13 | 7.46 | 8.77 | COc1ccc(Cc2cc([C@@H]3O[C@H](CO)[C@@H](O)[C@H](O)[C@H]3O)c3c(c2Cl)CCO3)cc1 [Compound E012, (2S,3R,4R,5S,6R)-2-(4-Chloro-5-(4-methoxybenzyl)-2,3-dihydrobenzofuran-7-yl)-6-(hydroxymethyl)tetrahydro-2H-pyran-3,4,5-triol]
14 | 6.98 | 9.08 | CCOc1ccc(Cc2cc([C@@H]3O[C@H](CO)[C@@H](O)[C@H](O)[C@H]3O)c3c(c2Cl)CCO3)cc1 [Compound E013, (2S,3R,4R,5S,6R)-2-(4-Chloro-5-(4-ethoxybenzyl)-2,3-dihydrobenzofuran-7-yl)-6-(hydroxymethyl)tetrahydro-2H-pyran-3,4,5-triol]
15 | 7.21 | 9.12 | CCc1ccc(Cc2cc([C@@H]3O[C@H](CO)[C@@H](O)[C@H](O)[C@H]3O)c3c(c2Cl)OCCC3)cc1 [Compound E014, (2S,3R,4R,5S,6R)-2-(8-Chloro-7-(4-ethylbenzyl)chroman-5-yl)-6-(hydroxymethyl)tetrahydro-2H-pyran-3,4,5-triol]
16 | 7.28 | 8.96 | OC[C@H]1O[C@@H](c2cc(Cc3ccc(C4CC4)cc3)c(Cl)c3c2OCC3)[C@H](O)[C@@H](O)[C@@H]1O [Compound E017, (2S,3R,4R,5S,6R)-2-(4-Chloro-5-(4-cyclopropylbenzyl)-2,3-dihydrobenzofuran-7-yl)-6-(hydroxymethyl)tetrahydro-2H-pyran-3,4,5-triol]
17 | 7.30 | 9.06 | OC[C@H]1O[C@@H](c2cc(Cc3ccc(C4CC4)cc3)c(Cl)c3c2CCCO3)[C@H](O)[C@@H](O)[C@@H]1O [Compound E022, (2S,3R,4R,5S,6R)-2-(8-Chloro-7-(4-cyclopropylbenzyl)chroman-5-yl)-6-(hydroxymethyl)tetrahydro-2H-pyran-3,4,5-triol]
18 | 7.11 | 8.68 | COc1ccc(Cc2cc([C@@H]3O[C@H](CO)[C@@H](O)[C@H](O)[C@H]3O)c3c(c2Cl)OCCC3)cc1 [Compound E023, (2S,3R,4R,5S,6R)-2-(8-Chloro-7-(4-methoxybenzyl)chroman-5-yl)-6-(hydroxymethyl)tetrahydro-2H-pyran-3,4,5-triol]
19 | 6.79 | 9.43 | C=Cc1ccc(Cc2cc([C@@H]3O[C@H](CO)[C@@H](O)[C@H](O)[C@H]3O)c3c(c2Cl)OCC3)cc1 [Compound E028, (2S,3R,4R,5S,6R)-2-(7-Chloro-6-(4-vinylbenzyl)-2,3-dihydrobenzofuran-4-yl)-6-(hydroxymethyl)tetrahydro-2H-pyran-3,4,5-triol]

Source: patent US9340521B2, “Method for dual inhibition of SGLT1 and SGLT2 using diphenylmethane derivatives” (GREEN CROSS CORPORATION, priority 2013, dated 2016)
